Consider 13 molecules from PubChem BioAssay (NCI).

Where “and” joins values, the source holds several entries; their conditions need not be identical. Identical values can stand only once.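 All cell lines were grown in 96-well plates and treated with compound for 48 hours. Abbreviation: GI50, concentration required for 50% inhibition of growth. TGI is the concentration that stops growth completely.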

Some test systems named below: BT-549 breast; IGROV1 ovarian; MDA-MB-435; MOLT-4 leukemia; NCI/ADR-RES ovarian; SNB-19 CNS; CCRF-CEM leukemia.
What all share (test): NCI-60 cell line screen, 48 h

Consider `Nc1cc(O)ccc1N=Nc1ccc(-c2nc3ccccc3[nH]2)cc1`, for which the GI50 is above 100 µM in the test with BT-549 breast; 19700 nM with IGROV1 ovarian; 17100 nM in the test on MDA-MB-435; above 100000 nM with MOLT-4 leukemia; above 100000 nM with NCI/ADR-RES ovarian; above 100 µM with SNB-19 CNS. In addition, the TGI was above 100 µM with BT-549 breast; above 100 µM in the test on IGROV1 ovarian; 73.5 µM in the test on MDA-MB-435; above 100 µM in the test with MOLT-4 leukemia; above 100 µM in the test on NCI/ADR-RES ovarian; above 100 µM in the test on SNB-19 CNS.
Turning to `Cc1ccc(-c2c3c(nn2-c2ccc(S(N)(=O)=O)cc2)-c2ccccc2C3)cc1`, the GI50 in the test on CCRF-CEM leukemia was 3560 nM; in the test on IGROV1 ovarian, 3270 nM; in the test on MDA-MB-435, 18200 nM; with MOLT-4 leukemia, 10800 nM; with NCI/ADR-RES ovarian, 23400 nM; in the test on SNB-19 CNS, 37.4 µM. The TGI in the test on CCRF-CEM leukemia is above 100 µM; with IGROV1 ovarian it was 16 µM; with MDA-MB-435, 34.7 µM; in the test on MOLT-4 leukemia it was 42.7 µM; in the test on NCI/ADR-RES ovarian it was 68.7 µM; with SNB-19 CNS, above 100 µM.
Take `CC1=C(/C=C/C(C)=C/C=C/C(C)=C/C=N/NC(=S)NC(=S)N/N=C/C=C(C)/C=C/C=C(C)/C=C/C2=C(C)CCCC2(C)C)C(C)(C)CCC1`: the GI50 is 4.85 µM and 1.69 µM in the test on BT-549 breast; 1710 nM and 686 nM in the test with CCRF-CEM leukemia; 1330 nM and 943 nM with IGROV1 ovarian; 1170 nM and 840 nM in the test with MDA-MB-435; 1160 nM and 667 nM in the test on MOLT-4 leukemia; 1760 nM and 1560 nM in the test on NCI/ADR-RES ovarian. The GI50 in the test on SNB-19 CNS was 5.25 µM and 4.15 µM. Also, the TGI was 11.5 µM and 4.77 µM with BT-549 breast; 25.8 µM and 4.45 µM in the test with CCRF-CEM leukemia; 6.15 µM and 2.87 µM in the test with IGROV1 ovarian; 4.49 µM and 2.14 µM in the test with MDA-MB-435; 6.09 µM and 2.45 µM in the test with MOLT-4 leukemia; 6.61 µM and 5.46 µM with NCI/ADR-RES ovarian. Further, the TGI in the test on SNB-19 CNS was 11.6 µM and 12 µM.
As to `COc1ccccc1C1=C(Nc2ccccc2)C(=O)NC1=O`, the GI50 is above 25 µM in the test with BT-549 breast; above 25000 nM with IGROV1 ovarian; above 25000 nM in the test with MDA-MB-435; above 25000 nM with MOLT-4 leukemia; above 25000 nM in the test with NCI/ADR-RES ovarian; above 25 µM in the test on SNB-19 CNS. For the same molecule, the TGI in the test on BT-549 breast, in the test on IGROV1 ovarian, with MDA-MB-435, with MOLT-4 leukemia, in the test with NCI/ADR-RES ovarian and in the test on SNB-19 CNS was above 25 µM in each case.
In the case of `CCCCCCNC(=O)Oc1ccc(/C(=C(/C)Cc2ccc(OC)cc2)c2ccc(OCCCN(C)C)cc2)cc1`, the GI50 with BT-549 breast was 15.6 µM; in the test on CCRF-CEM leukemia it was 16300 nM; with IGROV1 ovarian it was 16300 nM; with MDA-MB-435 it was 13800 nM; in the test with MOLT-4 leukemia, 12300 nM; in the test on NCI/ADR-RES ovarian it was 15800 nM. Moreover, the GI50 in the test on SNB-19 CNS is 17.2 µM. Further, the TGI is 30.3 µM with BT-549 breast; 33.8 µM in the test with CCRF-CEM leukemia; 32.7 µM in the test on IGROV1 ovarian; 27.1 µM in the test on MDA-MB-435; 28.2 µM in the test with MOLT-4 leukemia; 31.3 µM with NCI/ADR-RES ovarian. This molecule also displayed a TGI with SNB-19 CNS of 31.5 µM.
Take `CC(=O)OC1=CC2=CC[C@H]3[C@@H]4CCC(=O)[C@@]4(C)CC(=O)[C@]3(S)[C@@]2(C)CC1`: the TGI in the test on BT-549 breast was above 100 µM; with CCRF-CEM leukemia, above 100 µM; in the test on IGROV1 ovarian, above 100 µM; with MDA-MB-435 it was above 100 µM; in the test with MOLT-4 leukemia, 37.4 µM; with NCI/ADR-RES ovarian, above 100 µM. Moreover, in the test with SNB-19 CNS, the TGI is above 100 µM.
Regarding `CN(COC(=O)c1ccccc1)c1nc(N(C)COC(=O)c2ccccc2)nc(N(C)COC(=O)c2ccccc2)n1`, the TGI with CCRF-CEM leukemia is above 100 µM; with IGROV1 ovarian, above 100 µM; in the test on MDA-MB-435, above 100 µM; in the test with MOLT-4 leukemia, above 100 µM; with NCI/ADR-RES ovarian, above 100 µM; with SNB-19 CNS it was 51.7 µM.
For `COC(=O)C1OC2(CCCC3CC32)O[C@H]1C(=O)OC` (stereo not given in full), the TGI in the test with BT-549 breast, in the test on CCRF-CEM leukemia, in the test with IGROV1 ovarian, with MDA-MB-435, in the test on MOLT-4 leukemia and in the test on NCI/ADR-RES ovarian was above 100 µM throughout. Besides, the TGI with SNB-19 CNS is above 100 µM.
Consider `S=C(Nc1ccc(N=Nc2ccccc2)cc1)SCc1ccccc1`, for which the TGI in the test on BT-549 breast amounted to 40.3 µM; in the test on CCRF-CEM leukemia, 36.1 µM; with IGROV1 ovarian it was 32.6 µM; in the test with MDA-MB-435, 36.4 µM; with MOLT-4 leukemia it was 27.9 µM; in the test with NCI/ADR-RES ovarian it was 35.1 µM. For the same molecule, in the test on SNB-19 CNS, the TGI amounted to 39.4 µM.
For `CC(C)N1CCN(Cc2ccc3c(NNC(=O)c4ccccc4)nc4cc(F)ccc4n23)CC1`, the GI50 in the test on BT-549 breast was 0.629 µM; with CCRF-CEM leukemia it was 146 nM; with IGROV1 ovarian, 406 nM; in the test on MDA-MB-435, 655 nM; in the test on MOLT-4 leukemia it was 240 nM; in the test on NCI/ADR-RES ovarian it was 237 nM. In addition, the GI50 in the test with SNB-19 CNS is 0.537 µM. For the same molecule, the TGI turned out to be 12.1 µM with BT-549 breast; 4.09 µM in the test with CCRF-CEM leukemia; 14.1 µM in the test with IGROV1 ovarian; 15.1 µM in the test on MDA-MB-435; 2.04 µM in the test with MOLT-4 leukemia; 4.53 µM with NCI/ADR-RES ovarian. The molecule also registered a TGI with SNB-19 CNS of 8.07 µM.
In the case of `COc1ccc2c(C3(c4cn(C)c5cc(OC)ccc45)C(=O)Nc4ccc(Cl)cc43)cn(C)c2c1`, the GI50 with BT-549 breast is 5.26 µM; in the test with CCRF-CEM leukemia, 3810 nM; in the test with IGROV1 ovarian, 2820 nM; with MDA-MB-435, 2510 nM; in the test on MOLT-4 leukemia, 2580 nM; with NCI/ADR-RES ovarian, 3900 nM. The GI50 with SNB-19 CNS was 5.81 µM. Also, the TGI was 83.4 µM in the test on BT-549 breast; above 100 µM in the test on CCRF-CEM leukemia; above 100 µM with IGROV1 ovarian; 7.77 µM in the test on MDA-MB-435; 8.01 µM in the test with MOLT-4 leukemia; above 100 µM in the test on NCI/ADR-RES ovarian. The TGI in the test on SNB-19 CNS was above 100 µM.
In the case of `Cc1ccc(/C=C2\CN(C(=O)C(Cl)Cl)C/C(=C\c3ccc(C)cc3)C2=O)cc1`, the GI50 was 110 nM in the test on CCRF-CEM leukemia; 180 nM with IGROV1 ovarian; 197 nM in the test on MDA-MB-435; 341 nM in the test with NCI/ADR-RES ovarian; 0.286 µM in the test on SNB-19 CNS. Also, the TGI in the test with CCRF-CEM leukemia was above 100 µM; in the test with IGROV1 ovarian, 0.367 µM; in the test on MDA-MB-435 it was 0.408 µM; in the test with SNB-19 CNS it was 1.03 µM.
For `NC1=NC(c2ccc(Cl)cc2)N(c2ccc(S(N)(=O)=O)cc2)C(N)=N1` (stereo not given), the TGI in the test on BT-549 breast, in the test on CCRF-CEM leukemia, in the test on IGROV1 ovarian, in the test with MDA-MB-435, with MOLT-4 leukemia and in the test on NCI/ADR-RES ovarian was above 100 µM in each case. The molecule also had a TGI in the test with SNB-19 CNS above 100 µM.
